Test results taken from patent publication US11633370B2, “Use of scavengers of reactive gamma-ketoaldehydes to extend cell lifespan and healthspan” (Vanderbilt University, priority 2016, dated 2023).

Assays:
[1] = system: RB981 [F19F10.5(ok888) V]; assay: Longevity assay, ets-7 gene knock-out strain; assay type: in vivo, C. elegans; details: 500 μM SA; 0 μM SA 16 days; p>0.05
Source text: First, to validate the microarray results, the present inventors performed real-time RT-PCR on four genes, siah-1, sma-4, F13D12.6, and ets-7 (FIG. 6B). […] Messenger RNA levels for siah-1 and sma-4 were decreased by nearly 25%, as well as F13D12.6 and ets-7 were increased by nearly 25% by SA administration (p<0.05). Pathway Analysis using Gene Ontology (GO) with WEB-based Gene SeT Analysis Toolkit (WEBGESTALT <http://bioinfo.vanderbilt.edu/webgestalt/>) highlighted the metabolic process, lipid metabolic process, proteolysis pathways among many others as being altered favorably by the administration of SA (see Supplemental Data). From the array data confirmed by RT-PCR, the present inventors identified the ETS class transcription factor ETS-7 as a protein of interest. […] In order to test this, the present inventors carried out real-time RT-PCR quantification of ets-7 in non-functional SIR-2.1 mutant nematodes treated with increasing doses of SA (FIG. 6E). […]
Survival cultures were grown on 60-mm agar plates; after the late-stage L4/young adult molt, approximately 100 adults were transferred onto SA-OP50-seeded NGM plates. […] Worms were maintained at 20° C. and live worms were counted during transfer to freshly made SA-OP50-NGM agar plates every 2-3 days. Survival was scored as movement upon slight touch with the platinum wire. […]

mice = details: administering SA in mice; cited from earlier work

In the case of `NCc1ccccc1O` [SA, salicylamine], the median lifespan [1] is given as 15 days and the “age-related loss of working memory” value (mice) is given as “prevents the age-related loss of working memory”.
